One data set has as its system RAR. Particulars: Heyman et al. Cell 1992, 68, 397-406; cited from earlier work.
Another data set deals with RXR/PPAR heterodimers. Particulars: Mukherjee et al., Nature 1997, 386, 407-410; WO 97/10819; cited from earlier work.
Another data set deals with ob/ob and db/db mice. To be noted: Mukherjee et al., Nature 1997; cited from earlier work.

Here are results for 3 compounds from US20010034448A1, “New compounds, their preparation and use” (priority 1998, published 2001).

As usually defined, the melting point is the temperature of the solid-liquid transition.

For the compound `CC1=C(/C=C/C(C)=C\C=C\C(C)=C\C(=O)O)C(C)(C)CCC1` [9-cis retinoic acid], the “activation of RAR” value with RAR is “activates both RXR and RAR”.

Compound `Cc1cc2c(cc1C13CC1CCC3=Cc1ccc(C(=O)O)cc1)C(C)(C)CCC2(C)C` (stereo not shown) [Example 1, 4-[1-(3,5,5,8,8-Pentamethyl-5,6,7,8-tetrahydro-naphthalen-2-yl)-bicyclo[3.1.0]hex-2-ylidenemethyl]-benzoic Acid] yielded a melting point of 274.5 to 275.2 °C.

For `Cc1cc2c(cc1C1(c3ccc(C(=O)O)cn3)CC1)C(C)(C)CCC2(C)C` [LG 100268], the “activation of RXR/PPAR heterodimers” value in the data set on RXR/PPAR heterodimers is recorded as “activate RXR/PPAR heterodimers”. The “glucose, insulin and triglyceride levels” value in the data set on ob/ob and db/db mice was “reduction in glucose, insulin and triglyceride levels”.
